Measurements as given in ChEMBL document CHEMBL1123417, “New structure-activity relationships of the quinolone antibacterials using the target enzyme. The development and application of a DNA gyrase assay” (J Med Chem, 1986).
≈ marks a conversion by molar mass, not a printed value.

Columns and labels:
[1] = molecular target: DNA gyrase (Escherichia coli) (UniProt P0AES6+P0AES4)
Escherichia coli [2] = experiment: Antibacterial activity against Escherichia coli (H560)
Escherichia coli [3] = experiment: Antibacterial activity against Escherichia coli (vogel)
Klebsiella pneumoniae = experiment: Antibacterial activity against Klebsiella pneumonia (MGH-2)
Staphylococcus aureus = experiment: Antibacterial activity against Staphylococcus aureus (H228)
Pseudomonas aeruginosa = experiment: Antibacterial activity against Pseudomonas aeruginosa (UI-18)
Streptococcus pneumoniae = experiment: Antibacterial activity against Streptococcus pneumoniae (SV-1)

SMILES	gyrase cleavage conc [1]	MIC (Escherichia coli [2])	MIC (Escherichia coli [3])	MIC (Klebsiella pneumoniae)	MIC (Staphylococcus aureus)	MIC (Pseudomonas aeruginosa)	MIC (Streptococcus pneumoniae)
CCn1cc(C(=O)O)c(=O)c2cc(F)c(N3CCSC3)cc21	5 µg/mL	0.2 mg/L (≈ 0.62 µM)	0.2 mg/L (≈ 0.62 µM)	0.4 mg/L (≈ 1.24 µM)	0.2 mg/L (≈ 0.62 µM)	3.1 mg/L (≈ 9.62 µM)	12.5 mg/L (≈ 38.8 µM)
CCn1cc(C(=O)O)c(=O)c2cc(N)c(C)nc21	> 100 µg/mL	100 mg/L (≈ 404 µM)	> 100 mg/L	> 100 mg/L	50 mg/L (≈ 202 µM)	> 100 mg/L	50 mg/L (≈ 202 µM)
CCn1cc(C(=O)O)c(=O)c2cc(F)c(N3CCN(C(C)=N)CC3)cc21	2.5 µg/mL	0.2 mg/L (≈ 0.555 µM)	0.8 mg/L (≈ 2.22 µM)	1.6 mg/L (≈ 4.44 µM)	6.3 mg/L (≈ 17.5 µM)	1.6 mg/L (≈ 4.44 µM)	12.5 mg/L (≈ 34.7 µM)
CCn1cc(C(=O)O)c(=O)c2c(N)nc(N3CCCC3)nc21	100 µg/mL	100 mg/L (≈ 330 µM)	100 mg/L (≈ 330 µM)	> 100 mg/L	100 mg/L (≈ 330 µM)	> 100 mg/L	25 mg/L (≈ 82.4 µM)
CCn1cc(C(=O)O)c(=O)c2cc(F)c(SCCN)cc21	5 µg/mL	3.1 mg/L (≈ 9.99 µM)	0.8 mg/L (≈ 2.58 µM)	1.6 mg/L (≈ 5.16 µM)	25 mg/L (≈ 80.6 µM)	3.1 mg/L (≈ 9.99 µM)	25 mg/L (≈ 80.6 µM)
CCn1cc(C(=O)O)c(=O)c2cc(F)c(N3CCC(N4CCN(C)CC4)CC3)cc21	50 µg/mL	12.5 mg/L (≈ 30 µM)	3.1 mg/L (≈ 7.44 µM)	12.5 mg/L (≈ 30 µM)	1.6 mg/L (≈ 3.84 µM)	50 mg/L (≈ 120 µM)	6.3 mg/L (≈ 15.1 µM)
CCn1cc(C(=O)O)c(=O)cc1/C=C/c1ccsc1	100 µg/mL	50 mg/L (≈ 182 µM)	25 mg/L (≈ 90.8 µM)	> 100 mg/L	> 100 mg/L	> 100 mg/L	> 100 mg/L
CCn1cc(C(=O)O)c(=O)c2c(N)nc(N3CCN(C)CC3)nc21	100 µg/mL	3.1 mg/L (≈ 9.33 µM)	1.6 mg/L (≈ 4.81 µM)	6.3 mg/L (≈ 19 µM)	100 mg/L (≈ 301 µM)	100 mg/L (≈ 301 µM)	100 mg/L (≈ 301 µM)
CCn1cc(C(=O)O)c(=O)c2cc(F)c(N3CCN(CCN)CC3)nc21	6.3 µg/mL	12.5 mg/L (≈ 34.4 µM)	12.5 mg/L (≈ 34.4 µM)	25 mg/L (≈ 68.8 µM)	50 mg/L (≈ 138 µM)	50 mg/L (≈ 138 µM)	12.5 mg/L (≈ 34.4 µM)
CCn1cc(C(=O)O)c(=O)c2cc(F)c(C)cc21	25 µg/mL	0.4 mg/L (≈ 1.6 µM)	0.2 mg/L (≈ 0.802 µM)	0.2 mg/L (≈ 0.802 µM)	1.6 mg/L (≈ 6.42 µM)	12.5 mg/L (≈ 50.2 µM)	100 mg/L (≈ 401 µM)
CCOC(=O)N1CCN(c2nc3c(cc2F)c(=O)c(C(=O)O)cn3CC)CC1	18 µg/mL	50 mg/L (≈ 127 µM)	25 mg/L (≈ 63.7 µM)	50 mg/L (≈ 127 µM)	3.1 mg/L (≈ 7.9 µM)	200 mg/L (≈ 510 µM)	100 mg/L (≈ 255 µM)
CCn1cc(C(=O)O)c(=O)c2cc(F)c(N3CCC(C(N)=O)CC3)cc21	7.5 µg/mL	25 mg/L (≈ 69.2 µM)	6.3 mg/L (≈ 17.4 µM)	25 mg/L (≈ 69.2 µM)	3.1 mg/L (≈ 8.58 µM)	50 mg/L (≈ 138 µM)	6.3 mg/L (≈ 17.4 µM)
CCn1cc(C(=O)O)c(=O)c2cc(F)c(F)c(F)c21	38 µg/mL	6.3 mg/L (≈ 23.2 µM)	1.6 mg/L (≈ 5.9 µM)	6.3 mg/L (≈ 23.2 µM)	50 mg/L (≈ 184 µM)	> 100 mg/L	> 100 mg/L
CCn1cc(C(=O)O)c(=O)c2ccc(N3CCNCC3)cc21	18 µg/mL	6.3 mg/L (≈ 20.9 µM)	6.3 mg/L (≈ 20.9 µM)	6.3 mg/L (≈ 20.9 µM)	> 50 mg/L	25 mg/L (≈ 83 µM)	50 mg/L (≈ 166 µM)
CCn1cc(C(=O)O)c(=O)c2cc(F)c(N3CCNCC3)cc21	1 µg/mL	–	–	–	–	–	–
CCn1cc(C(=O)O)c(=O)c2ccc(C)nc21	50 µg/mL	–	–	–	–	–	–
